{"source": "patent US8546320B2", "about": "“Hsp9O-targeted anti-cancer chimeric peptide” (Kyoto University, priority 2008, dated 2013)", "key": {"Caki-1": {"test_system": "Caki-1", "assay_type": "cell-based, human", "settings": "Caki-1; for Anti-cancer activity (% relative to wild-type peptide) / Decrease in cell survival rate (% relative to wild-type peptide): wild-type peptide = 100%", "procedure": "A total of 3×10^3 cells were inoculated per well on a 96 well plate and cultured in a medium containing 10% FBS for 24 hours, and incubated with 100 μl of a peptide having a gradual increase in concentration at 37° C. for 48 to 72 hours. The survival rate of the cells was measured by using WST-8 solution (Cell Count Reagent SF; Nacalai Tesque, Inc.).\nRespective variant peptides were subjected to cell viability assay. Specifically, Caki-1 (American Type Culture Collection (Manassas, Va.) was inoculated in a total amount of 3×10^3 cells per well on a 96 well plate (Nunc™); the cells were cultured in a medium (DMEM (Tesque, Inc.) containing 10% FBS (fetal bovine serum; Biowest)) for 24 hours and incubated with 100 μl of a peptide having a gradual increase in concentration at 37° C. for 48 to 72 hours. The cell survival rate was measured by using WST-8 solution (Cell Count Reagent SF; Nacalai Tesque, Inc.) and compared with that of the wild-type Antp-TPR peptide.\nRespective variant peptides were subjected to cell viability assay. Specifically, Caki-1 (American Type Culture Collection (Manassas, Va.) was inoculated in a total amount of 3×10^3 cells per well on a 96 well plate (Nunc™); the cells were cultured in a medium containing 10% FBS for 24 hours and incubated with 100 μl of a peptide having a gradual increase in concentration at 37° C. for 48 to 72 hours. The cell survival rate was measured by using WST-8 solution (Cell Count Reagent SF; Nacalai Tesque, Inc.) and compared with that of the wild-type Antp-TPR peptide."}, "cancer cells": {"test_system": "cancer cells", "assay": "Cell viability assay, summary statements on cancer cells", "assay_type": "cell-based", "settings": "single mutation in TPR or Antp region of Antp-TPR"}, "U937": {"test_system": "U937", "assay": "cells", "assay_type": "cell-based, human", "settings": "U937; for Cell Survival Rate (%): concentration not given; for Anti-cancer activity (% relative to wild-type peptide) / Decrease in cell survival rate (% relative to wild-type peptide): wild-type peptide = 100%", "procedure": "A total of 3×10^3 cells per well were inoculated onto a 96 well plate, and incubated in a medium containing 10% FBS with 100 μl of a peptide diluted stepwise at 37° C. for 48 to 72 hours. The survival rate of the cells was measured by using WST-8 solution (Cell Count Reagent SF; Nacalai Tesque, Inc.)."}}, "note": "Where a SMILES comes first, the peptide text is derived from it."}
{"molecule": "CC[C@H](C)[C@H](NC(=O)[C@H](CCCNC(=N)N)NC(=O)[C@H](C)NC(=O)[C@H](Cc1ccc(O)cc1)NC(=O)[C@H](C)NC(=O)[C@H](CCCCN)NC(=O)[C@H](CCCCN)NC(=O)[C@H](CCCCN)NC(=O)[C@H](Cc1c[nH]c2ccccc12)NC(=O)[C@H](CCCCN)NC(=O)[C@H](CCSC)NC(=O)[C@H](CCCNC(=N)N)NC(=O)[C@H](CCCNC(=N)N)NC(=O)[C@H](CC(N)=O)NC(=O)[C@H](CCC(N)=O)NC(=O)[C@H](Cc1ccccc1)NC(=O)[C@H](Cc1c[nH]c2ccccc12)NC(=O)[C@@H](NC(=O)[C@H](CCCCN)NC(=O)[C@H](CC(C)C)NC(=O)[C@H](CCC(N)=O)NC(=O)[C@@H](N)CCCNC(=N)N)[C@@H](C)CC)C(=O)NCC(=O)N[C@@H](CC(N)=O)C(=O)N[C@@H](CO)C(=O)N[C@@H](Cc1ccc(O)cc1)C(=O)N[C@@H](Cc1ccccc1)C(=O)N[C@@H](CCCCN)C(=O)O", "note": "[Antp 13L-TPR] (H-RQLKIWFQNRRMKWKKKAYARIGNSYFK-OH; N-terminus and C-terminus assumed)", "values": [{"measurement": "Anti-cancer activity (% relative to wild-type peptide)", "setting": "Caki-1", "value": 69.12, "unit": "%"}, {"measurement": "Decrease in cell survival rate (% relative to wild-type peptide)", "setting": "Caki-1", "value": 27.91, "unit": "%"}, {"measurement": "effect compared with the wild-type protein (summary of mutations)", "setting": "cancer cells", "value": "effective but with an effect lower than the wild-type protein"}]}
{"molecule": "CC[C@H](C)[C@H](NC(=O)[C@H](CCCNC(=N)N)NC(=O)[C@H](C)NC(=O)[C@H](Cc1ccc(O)cc1)NC(=O)[C@H](C)NC(=O)[C@H](CCCCN)NC(=O)[C@H](CCCCN)NC(=O)[C@H](CCCCN)NC(=O)[C@H](Cc1c[nH]c2ccccc12)NC(=O)[C@H](CCCCN)NC(=O)[C@H](CCSC)NC(=O)[C@H](CCCNC(=N)N)NC(=O)[C@H](CCCNC(=N)N)NC(=O)[C@H](CC(N)=O)NC(=O)[C@H](CCC(N)=O)NC(=O)[C@H](Cc1ccccc1)NC(=O)[C@H](Cc1c[nH]c2ccccc12)NC(=O)[C@H](CC(C)C)NC(=O)[C@H](CCCCN)NC(=O)[C@@H](NC(=O)[C@H](CCC(N)=O)NC(=O)[C@@H](N)CCCNC(=N)N)[C@@H](C)CC)C(=O)NCC(=O)N[C@@H](CC(N)=O)C(=O)N[C@@H](CO)C(=O)N[C@@H](Cc1ccc(O)cc1)C(=O)N[C@@H](Cc1ccccc1)C(=O)N[C@@H](CCCCN)C(=O)O", "note": "[Antp 15L-TPR] (H-RQIKLWFQNRRMKWKKKAYARIGNSYFK-OH; N-terminus and C-terminus assumed)", "values": [{"measurement": "Anti-cancer activity (% relative to wild-type peptide)", "setting": "Caki-1", "value": 73.75, "unit": "%"}, {"measurement": "Decrease in cell survival rate (% relative to wild-type peptide)", "setting": "Caki-1", "value": 31.29, "unit": "%"}, {"measurement": "effect compared with the wild-type protein (summary of mutations)", "setting": "cancer cells", "value": "effective but with an effect lower than the wild-type protein"}]}
{"molecule": "CC[C@H](C)[C@H](NC(=O)[C@H](CCCNC(=N)N)NC(=O)[C@H](C)NC(=O)[C@H](Cc1ccc(O)cc1)NC(=O)[C@H](C)NC(=O)[C@H](CCCCN)NC(=O)[C@H](CCCCN)NC(=O)[C@H](CCCCN)NC(=O)[C@H](Cc1c[nH]c2ccccc12)NC(=O)[C@H](CCCCN)NC(=O)[C@H](CCSC)NC(=O)[C@H](CCCNC(=N)N)NC(=O)[C@H](CCCNC(=N)N)NC(=O)[C@H](CC(N)=O)NC(=O)[C@H](CCC(N)=O)NC(=O)[C@H](Cc1ccc(O)cc1)NC(=O)[C@H](Cc1c[nH]c2ccccc12)NC(=O)[C@@H](NC(=O)[C@H](CCCCN)NC(=O)[C@@H](NC(=O)[C@H](CCC(N)=O)NC(=O)[C@@H](N)CCCNC(=N)N)[C@@H](C)CC)[C@@H](C)CC)C(=O)NCC(=O)N[C@@H](CC(N)=O)C(=O)N[C@@H](CO)C(=O)N[C@@H](Cc1ccc(O)cc1)C(=O)N[C@@H](Cc1ccccc1)C(=O)N[C@@H](CCCCN)C(=O)O", "note": "[Antp F7Y-TPR] (H-RQIKIWYQNRRMKWKKKAYARIGNSYFK-OH; N-terminus and C-terminus assumed)", "values": [{"measurement": "Anti-cancer activity (% relative to wild-type peptide)", "setting": "Caki-1", "value": 29.86, "unit": "%"}, {"measurement": "Decrease in cell survival rate (% relative to wild-type peptide)", "setting": "Caki-1", "value": 14.56, "unit": "%"}, {"measurement": "effect compared with the wild-type protein (summary of mutations)", "setting": "cancer cells", "value": "effective but with an effect lower than the wild-type protein"}]}
{"molecule": "CC[C@H](C)[C@H](NC(=O)[C@H](CCCNC(=N)N)NC(=O)[C@H](C)NC(=O)[C@H](Cc1ccc(O)cc1)NC(=O)[C@H](C)NC(=O)[C@H](CCCCN)NC(=O)[C@H](CCCCN)NC(=O)[C@H](CCCCN)NC(=O)[C@H](Cc1c[nH]c2ccccc12)NC(=O)[C@H](CCCCN)NC(=O)[C@H](CCSC)NC(=O)[C@H](CCCNC(=N)N)NC(=O)[C@H](CCCNC(=N)N)NC(=O)[C@H](CC(N)=O)NC(=O)[C@H](CCC(N)=O)NC(=O)[C@H](Cc1ccccc1)NC(=O)[C@H](Cc1c[nH]c2ccccc12)NC(=O)[C@@H](NC(=O)[C@H](CCCNC(=N)N)NC(=O)[C@@H](NC(=O)[C@H](CCC(N)=O)NC(=O)[C@@H](N)CCCNC(=N)N)[C@@H](C)CC)[C@@H](C)CC)C(=O)NCC(=O)N[C@@H](CC(N)=O)C(=O)N[C@@H](CO)C(=O)N[C@@H](Cc1ccc(O)cc1)C(=O)N[C@@H](Cc1ccccc1)C(=O)N[C@@H](CCCCN)C(=O)O", "note": "[Antp K4R-TPR] (H-RQIRIWFQNRRMKWKKKAYARIGNSYFK-OH; N-terminus and C-terminus assumed)", "values": [{"measurement": "killing effect compared with the wild-type peptide", "setting": "Caki-1", "value": "stronger than that of the wild-type peptide"}, {"measurement": "Anti-cancer activity (% relative to wild-type peptide)", "setting": "Caki-1", "value": 109.86, "unit": "%"}, {"measurement": "Decrease in cell survival rate (% relative to wild-type peptide)", "setting": "Caki-1", "value": 573.28, "unit": "%"}, {"measurement": "effect compared with the wild-type protein (summary of mutations)", "setting": "cancer cells", "value": "effect higher than the wild-type protein"}]}
{"molecule": "CC[C@H](C)[C@H](NC(=O)[C@H](CCCNC(=N)N)NC(=O)[C@H](C)NC(=O)[C@H](Cc1ccc(O)cc1)NC(=O)[C@H](C)NC(=O)[C@H](CCCCN)NC(=O)[C@H](CCCCN)NC(=O)[C@H](CCCCN)NC(=O)[C@H](Cc1c[nH]c2ccccc12)NC(=O)[C@H](CCCNC(=N)N)NC(=O)[C@H](CCSC)NC(=O)[C@H](CCCNC(=N)N)NC(=O)[C@H](CCCNC(=N)N)NC(=O)[C@H](CC(N)=O)NC(=O)[C@H](CCC(N)=O)NC(=O)[C@H](Cc1ccccc1)NC(=O)[C@H](Cc1c[nH]c2ccccc12)NC(=O)[C@@H](NC(=O)[C@H](CCCCN)NC(=O)[C@@H](NC(=O)[C@H](CCC(N)=O)NC(=O)[C@@H](N)CCCNC(=N)N)[C@@H](C)CC)[C@@H](C)CC)C(=O)NCC(=O)N[C@@H](CC(N)=O)C(=O)N[C@@H](CO)C(=O)N[C@@H](Cc1ccc(O)cc1)C(=O)N[C@@H](Cc1ccccc1)C(=O)N[C@@H](CCCCN)C(=O)O", "note": "[Antp K13R-TPR] (H-RQIKIWFQNRRMRWKKKAYARIGNSYFK-OH; N-terminus and C-terminus assumed)", "values": [{"measurement": "killing effect compared with the wild-type peptide", "setting": "Caki-1", "value": "stronger than that of the wild-type peptide"}, {"measurement": "Anti-cancer activity (% relative to wild-type peptide)", "setting": "Caki-1", "value": 108.64, "unit": "%"}, {"measurement": "Decrease in cell survival rate (% relative to wild-type peptide)", "setting": "Caki-1", "value": 360.96, "unit": "%"}, {"measurement": "effect compared with the wild-type protein (summary of mutations)", "setting": "cancer cells", "value": "effect similar to that of the wild-type protein"}]}
{"molecule": "CC[C@H](C)[C@H](NC(=O)[C@H](CCCNC(=N)N)NC(=O)[C@H](C)NC(=O)[C@H](Cc1ccc(O)cc1)NC(=O)[C@H](C)NC(=O)[C@H](CCCCN)NC(=O)[C@H](CCCCN)NC(=O)[C@H](CCCNC(=N)N)NC(=O)[C@H](Cc1c[nH]c2ccccc12)NC(=O)[C@H](CCCCN)NC(=O)[C@H](CCSC)NC(=O)[C@H](CCCNC(=N)N)NC(=O)[C@H](CCCNC(=N)N)NC(=O)[C@H](CC(N)=O)NC(=O)[C@H](CCC(N)=O)NC(=O)[C@H](Cc1ccccc1)NC(=O)[C@H](Cc1c[nH]c2ccccc12)NC(=O)[C@@H](NC(=O)[C@H](CCCCN)NC(=O)[C@@H](NC(=O)[C@H](CCC(N)=O)NC(=O)[C@@H](N)CCCNC(=N)N)[C@@H](C)CC)[C@@H](C)CC)C(=O)NCC(=O)N[C@@H](CC(N)=O)C(=O)N[C@@H](CO)C(=O)N[C@@H](Cc1ccc(O)cc1)C(=O)N[C@@H](Cc1ccccc1)C(=O)N[C@@H](CCCCN)C(=O)O", "note": "[Antp K15R-TPR] (H-RQIKIWFQNRRMKWRKKAYARIGNSYFK-OH; N-terminus and C-terminus assumed)", "values": [{"measurement": "killing effect compared with the wild-type peptide", "setting": "Caki-1", "value": "stronger than that of the wild-type peptide"}, {"measurement": "Anti-cancer activity (% relative to wild-type peptide)", "setting": "Caki-1", "value": 110.21, "unit": "%"}, {"measurement": "Decrease in cell survival rate (% relative to wild-type peptide)", "setting": "Caki-1", "value": 687.99, "unit": "%"}, {"measurement": "effect compared with the wild-type protein (summary of mutations)", "setting": "cancer cells", "value": "effect similar to that of the wild-type protein"}]}
{"molecule": "RQIKIWFQNRRMKWKKKAYAAIGNSYFK (Antp-TPR R5A peptide) [Antp-R5A]", "values": [{"measurement": "Cell Survival Rate (%)", "setting": "U937", "value": 40.24, "unit": "%"}, {"measurement": "Anti-cancer activity (% relative to wild-type peptide)", "setting": "U937", "value": 77.85, "unit": "%"}, {"measurement": "Decrease in cell survival rate (% relative to wild-type peptide)", "setting": "U937", "value": 57.74, "unit": "%"}, {"measurement": "effect compared with the wild-type protein (summary of mutations)", "setting": "cancer cells", "value": "effective but with a lower effect than the wild-type protein"}]}
{"molecule": "RQIKIWFQNRRMKWKKKAYARAGNSYFK (Antp-TPR I6A peptide) [Antp-I6A]", "values": [{"measurement": "killing effect compared with the wild-type peptide", "setting": "U937", "value": "increase in effect"}, {"measurement": "Cell Survival Rate (%)", "setting": "U937", "value": 7.48, "unit": "%"}, {"measurement": "Anti-cancer activity (% relative to wild-type peptide)", "setting": "U937", "value": 120.54, "unit": "%"}, {"measurement": "Decrease in cell survival rate (% relative to wild-type peptide)", "setting": "U937", "value": 310.88, "unit": "%"}, {"measurement": "effect compared with the wild-type protein (summary of mutations)", "setting": "cancer cells", "value": "effect higher than the wild-type protein"}]}
